Results on eight compounds are retold here after ChEMBL document CHEMBL5550105, “Progress on synthesis and structure-activity relationships of lamellarins over the past decade” (Eur J Med Chem, 2024).

One assay relates to HeLa. Briefly: Cytotoxicity against human HeLa cells assessed as reduction in cell viability measured for 48 hrs by crystal violet staining based analysis. The assay is classed as functional.
Another assay relates to DU-145. The assay can be described thus: Growth inhibition of human DU-145 cells measured for 72 hrs by SRB assay. The assay is classed as functional.
The target in another assay is Acetylcholinesterase (Homo sapiens, UniProt P22303). Briefly: Inhibition of human recombinant AChE using acetylthiocholine iodide substrate incubated for 5 mins by Ellman's spectrophotometric analysis. In general terms: DTNB colorimetry detects thiols as they appear.
Assay [1] deals with ATP-dependent translocase ABCB1 (Homo sapiens, UniProt P08183). Briefly: Inhibition of p-glycoprotein (unknown origin) expressed in MDCK-MDR1 cells. The assay is classed as cell-based.
The next assay relates to HT-29. Briefly: Growth inhibition of human HT-29 cells measured for 72 hrs by SRB assay. The assay is classed as functional. A general note: Sulforhodamine B stains cellular protein and so reports cell mass.
A further assay concerns MCF7. The assay can be described thus: Antiproliferative activity against human MCF7 cells assessed as reduction in cell growth incubated for 48 hrs by MTT assay. The format is functional, cell-based. The conditions noted are these: MCF7, 48 h.

A word on the IC50: it is the concentration at which inhibition is half-maximal. As usually defined, the GI50 is the concentration giving 50% growth inhibition. A lower GI50 goes with more potent growth inhibition.

Sequence of ATP-dependent translocase ABCB1 (P08183 whole entry): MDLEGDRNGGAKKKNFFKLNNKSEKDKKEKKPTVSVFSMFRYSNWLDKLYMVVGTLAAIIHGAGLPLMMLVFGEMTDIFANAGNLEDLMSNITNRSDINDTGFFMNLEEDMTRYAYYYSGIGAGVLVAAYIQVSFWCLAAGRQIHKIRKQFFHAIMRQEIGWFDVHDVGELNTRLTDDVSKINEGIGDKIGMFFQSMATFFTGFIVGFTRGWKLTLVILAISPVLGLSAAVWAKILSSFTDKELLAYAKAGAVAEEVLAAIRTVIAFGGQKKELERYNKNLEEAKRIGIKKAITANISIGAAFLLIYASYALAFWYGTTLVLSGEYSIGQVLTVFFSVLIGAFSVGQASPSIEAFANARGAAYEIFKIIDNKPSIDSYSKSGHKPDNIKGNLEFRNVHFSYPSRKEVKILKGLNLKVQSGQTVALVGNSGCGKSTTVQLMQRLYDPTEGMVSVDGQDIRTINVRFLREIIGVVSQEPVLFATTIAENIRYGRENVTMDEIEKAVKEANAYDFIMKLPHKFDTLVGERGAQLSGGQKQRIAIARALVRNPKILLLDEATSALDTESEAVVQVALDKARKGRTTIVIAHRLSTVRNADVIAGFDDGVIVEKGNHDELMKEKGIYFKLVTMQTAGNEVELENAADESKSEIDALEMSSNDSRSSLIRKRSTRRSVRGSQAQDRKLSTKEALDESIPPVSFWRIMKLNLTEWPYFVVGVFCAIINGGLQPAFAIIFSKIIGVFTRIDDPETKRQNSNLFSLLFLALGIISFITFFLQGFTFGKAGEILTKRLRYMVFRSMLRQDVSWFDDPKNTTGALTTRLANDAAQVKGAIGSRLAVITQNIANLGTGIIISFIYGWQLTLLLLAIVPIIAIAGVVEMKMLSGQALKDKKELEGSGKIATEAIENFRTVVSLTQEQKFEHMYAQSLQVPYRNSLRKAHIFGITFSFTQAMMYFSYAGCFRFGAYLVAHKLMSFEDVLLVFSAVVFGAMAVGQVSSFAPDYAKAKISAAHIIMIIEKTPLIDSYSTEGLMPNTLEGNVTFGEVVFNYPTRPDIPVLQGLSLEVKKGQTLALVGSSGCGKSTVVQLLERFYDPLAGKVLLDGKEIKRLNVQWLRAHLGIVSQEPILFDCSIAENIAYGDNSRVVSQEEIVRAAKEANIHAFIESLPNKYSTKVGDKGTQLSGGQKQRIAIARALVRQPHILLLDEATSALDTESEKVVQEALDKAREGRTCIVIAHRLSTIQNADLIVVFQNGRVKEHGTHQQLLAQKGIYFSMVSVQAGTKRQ
Sequence of Acetylcholinesterase (P22303 whole entry): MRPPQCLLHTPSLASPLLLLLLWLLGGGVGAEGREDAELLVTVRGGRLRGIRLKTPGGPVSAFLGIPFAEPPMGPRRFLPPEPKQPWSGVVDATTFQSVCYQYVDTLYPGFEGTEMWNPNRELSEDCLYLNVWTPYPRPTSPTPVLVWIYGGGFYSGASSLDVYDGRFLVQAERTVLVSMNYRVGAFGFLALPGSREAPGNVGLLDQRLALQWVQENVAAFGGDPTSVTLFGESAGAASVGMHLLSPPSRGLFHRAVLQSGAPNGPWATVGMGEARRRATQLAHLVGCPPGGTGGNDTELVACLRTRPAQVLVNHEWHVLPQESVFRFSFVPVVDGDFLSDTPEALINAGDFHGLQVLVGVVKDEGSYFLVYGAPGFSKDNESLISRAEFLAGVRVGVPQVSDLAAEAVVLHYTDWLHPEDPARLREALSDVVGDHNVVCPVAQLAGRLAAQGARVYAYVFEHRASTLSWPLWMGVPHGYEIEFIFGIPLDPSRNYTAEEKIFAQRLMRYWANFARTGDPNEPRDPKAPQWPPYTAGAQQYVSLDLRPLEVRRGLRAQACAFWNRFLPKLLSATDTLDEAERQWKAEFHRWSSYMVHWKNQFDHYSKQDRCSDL

Regarding `COc1cc(-c2c3c4cc(OC)c(O)cc4[nH]c(=O)c3n3ccc4cc(O)c(OC)cc4c23)ccc1O`, the 50% inhibitory concentration (IC50) in the assay with HeLa was 0.317 µM.

The compound `COc1cc(-c2c3c4cc(OC)c(OC(=O)[C@H](N)C(C)C)cc4oc(=O)c3n3ccc4cc(OC(=O)[C@@H](N)C(C)C)c(OC)cc4c23)ccc1OC(=O)[C@@H](N)C(C)C` displayed a GI50 in the assay on DU-145 of 0.0108 µM.

On to `CCOc1cc2c(cc1OCC)-c1c(-c3ccc(Cl)cc3)c(/C=N/c3ccc(/N=C/c4c(-c5ccc(Cl)cc5)c5n(c4-c4ccccc4)CCc4cc(OC)c(OC)cc4-5)cc3)c(-c3ccccc3)n1CC2`, for which the IC50 at Acetylcholinesterase was 4.69 µM.

`CCOc1cc2c(cc1OCC)-c1c(-c3ccc(F)cc3)c(/C=N/c3ccc(O)cc3)c(-c3ccccc3)n1CC2`: the IC50 in assay [1] amounted to 1.01 µM.

`CCOc1ccc(-c2c(C=O)c(-c3ccco3)n3c2-c2cc(OCC)c(OCC)cc2CC3)cc1OCC` showed an IC50 in assay [1] of 0.19 µM.

Compound `COCCOCCOCC(=O)Oc1ccc(-c2c3c4cc(OC)c(OC(=O)COCCOCCOC)cc4oc(=O)c3n3ccc4cc(O)c(OC)cc4c23)cc1OC` displayed a 50% growth inhibitory concentration (GI50) with HT-29 of 1.28 µM.

For the compound `Cc1ccc(-c2nc3c(=O)oc4ccccc4c3c3ccoc23)cc1`, in the assay with MCF7, the 50% inhibitory concentration (IC50) is 6.83 µM.

Take `COc1cc(-c2c3c4cc(OC)c(O)cc4oc(=O)c3n3ccc4cc(O)c(OC)cc4c23)ccc1O` [LAMELLARIN D]: the GI50 turned out to be 3 µM in the assay with HT-29 and 0.0109 µM in the assay on DU-145.
